The target of assay [1] is T1, human recombinant adrenergic α2A receptor (Homo sapiens, UniProt P08913).
T1 construct: expressed in transfected cells; host or cells: insect Sf9 cells
T1 sequence (P08913 1-465): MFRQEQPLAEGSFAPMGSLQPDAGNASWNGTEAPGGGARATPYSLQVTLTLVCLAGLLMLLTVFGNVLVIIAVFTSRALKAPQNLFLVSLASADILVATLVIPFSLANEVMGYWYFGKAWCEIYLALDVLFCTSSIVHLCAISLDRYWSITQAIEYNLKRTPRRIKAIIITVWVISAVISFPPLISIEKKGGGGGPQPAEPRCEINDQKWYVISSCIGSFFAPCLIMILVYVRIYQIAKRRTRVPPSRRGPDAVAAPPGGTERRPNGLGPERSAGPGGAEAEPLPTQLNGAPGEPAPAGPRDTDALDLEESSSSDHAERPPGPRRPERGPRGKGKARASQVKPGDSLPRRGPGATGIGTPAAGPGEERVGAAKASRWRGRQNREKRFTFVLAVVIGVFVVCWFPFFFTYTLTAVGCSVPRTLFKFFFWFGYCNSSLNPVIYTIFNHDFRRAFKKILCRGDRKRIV
The experiment in a line: Adrenergic α2A radioligand binding ([3H]MK-912). The note with it: 1 h; read-out: Percent Inhibition of ligand binding Adrenergic (1 μM ligand conc.) α2A. Here is the method: To evaluate in radioligand binding assays the activity of compounds of the invention, human recombinant adrenergic α2A receptor expressed in insect Sf9 cells (Uhlen S et al. J Pharmacol Exp Ther. 271:1558, 1994) in a modified Tris-HCl buffer (50 mM Tris-HCl, pH 7.4, 12.5 mM MgCl2, 2 mM EDTA) was used. Compounds of invention were incubated with 1 nM [^3H]MK-912 for 60 minutes at 25° C. MK912 is (2S-trans)-1,3,4,5′,6,6′,7,12b-octahydro-1′,3′-dimethyl-spiro[2H-benzofuro[2,3-a]quinolizine-2,4′(1′H)-pyrimidin]-2′(3′H)-one hydrochloride Non-specific binding was estimated in the presence of 10 μM WB-4101 (2-(2,6-Dimethoxyphenoxyethyl)aminomethyl-1,4-benzodioxane hydrochloride). Receptor proteins were filtered and washed, the filters were then counted to determine [^3H]MK-912 specifically bound. Compounds were screened at 1 μM or lower, using 1% DMSO as vehicle. Biochemical assay results are presented as the percent inhibition of specific binding in Table 4.

In assay [2] the target is T2, human recombinant serotonin (5-Hydroxytryptamine) 5-HT2C receptor (Homo sapiens, UniProt P28335).
T2 construct: expressed in transfected cells; host or cells: CHO-K1 cells
T2 sequence (P28335 33-458): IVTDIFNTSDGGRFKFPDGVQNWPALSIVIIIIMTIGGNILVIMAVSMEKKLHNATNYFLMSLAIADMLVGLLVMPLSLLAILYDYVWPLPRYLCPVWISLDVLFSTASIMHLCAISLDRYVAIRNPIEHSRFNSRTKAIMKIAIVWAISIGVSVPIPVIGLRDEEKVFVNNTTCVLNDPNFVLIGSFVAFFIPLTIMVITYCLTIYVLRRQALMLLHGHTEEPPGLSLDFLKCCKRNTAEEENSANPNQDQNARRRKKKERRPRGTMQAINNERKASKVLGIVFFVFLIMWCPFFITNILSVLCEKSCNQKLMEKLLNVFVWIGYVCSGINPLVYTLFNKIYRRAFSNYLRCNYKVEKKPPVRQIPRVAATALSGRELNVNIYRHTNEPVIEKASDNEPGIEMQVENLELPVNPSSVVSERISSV
Briefly: Serotonin 5-HT2C radioligand binding ([3H]Mesulergine). Particulars: for inhibition at 1 µM: 1 h, read-out: Percent Inhibition of ligand binding Serotonin (1 μM ligand concentration) 5-HT2C. The procedure: Compounds of the invention were incubated with 1 nM [^3H]Mesulergine for 60 minutes at 25° C. Non-specific binding was estimated in the presence of 1 μM Mianserin. Receptor proteins were filtered and washed, the filters were then counted to determine [^3H]Mesulergine specifically bound. […] Biochemical assay results are presented as the percent inhibition of specific binding in Table 5.

For assay [3], the target named is T3, human recombinant adrenergic α1D receptor (Homo sapiens, UniProt P25100).
T3 construct: expressed in transfected cells; host or cells: HEK-293 cells
T3 sequence (P25100 1-572): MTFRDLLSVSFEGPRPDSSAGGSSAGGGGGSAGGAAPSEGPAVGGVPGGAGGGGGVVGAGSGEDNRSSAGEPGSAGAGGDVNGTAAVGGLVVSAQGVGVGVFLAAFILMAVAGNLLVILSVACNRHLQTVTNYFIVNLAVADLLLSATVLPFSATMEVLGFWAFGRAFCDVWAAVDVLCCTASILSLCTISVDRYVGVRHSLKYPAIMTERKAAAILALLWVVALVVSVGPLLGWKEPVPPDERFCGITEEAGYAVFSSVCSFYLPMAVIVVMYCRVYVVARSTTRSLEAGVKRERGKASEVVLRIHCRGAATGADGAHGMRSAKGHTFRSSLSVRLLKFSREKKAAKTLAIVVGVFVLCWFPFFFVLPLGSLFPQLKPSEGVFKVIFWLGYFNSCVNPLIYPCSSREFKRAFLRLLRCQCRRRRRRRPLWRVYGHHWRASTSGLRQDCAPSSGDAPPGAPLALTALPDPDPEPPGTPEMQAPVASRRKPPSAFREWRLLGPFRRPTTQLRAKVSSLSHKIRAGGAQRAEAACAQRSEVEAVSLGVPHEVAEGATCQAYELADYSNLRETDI
The experiment in a line: Adrenergic α1D radioligand binding ([3H]Prozosin). The note with it: 1 h; read-out: Percent Inhibition of ligand binding Adrenergic (1 μM ligand conc.) α1D. Here is the method: To evaluate in radioligand binding assays the activity of compounds of the invention, human recombinant adrenergic a1D receptor expressed in human embryonic kidney (HEK-293) cells (Kenny, B. A. et al. Br. J. Pharmacol. 115(6):981, 1995) in a 50 mM Tris-HCl buffer, pH 7.4, was used. Compounds of invention were incubated with 0.6 nM [^3H]Prozosin for 60 minutes at 25° C. Non-specific binding was estimated in the presence of 10 μM phentolamine. Receptor proteins were filtered and washed, the filters were then counted to determine [^3H]Prozosin specifically bound. Compounds were screened at 1 μM or lower, using 1% DMSO as vehicle. Biochemical assay results are presented as the percent inhibition of specific binding in Table 4. Adrenergic a2A

As to `CCC1c2c(c3cc(C)ccc3n2C#Cc2ccc(Cl)cc2)CCN1C` (stereo not drawn) [Compound 162, 9-((4-chlorophenyl)ethynyl)-1-ethyl-2,6-dimethyl-2,3,4,9-tetrahydro-1H-pyrido[3,4-b]indole], the inhibition at 1 µM in assay [1] came out at 76%; in assay [2] it was 101%; in assay [3] it was 19%.
On the same counts, the results for `CN1CCc2c(n(CCc3ccc(F)cc3)c3ccc(Cl)cc23)C1` [Compound 3, 9-(4-fluorophenethyl)-6-chloro-2,3,4,9-tetrahydro-2-methyl-1H-pyrido[3,4-b]indole] are 99%, 90% and 77%.
On the same counts, the results for `C/C(=C/n1c2c(c3cc(Cl)ccc31)CCN(C)C2C)c1ccccc1F` (stereo not drawn) [Compound 167] are 92%, 95% and 36%.
The like results for `CN1CCc2c(n(CC(=O)Nc3ccc(F)cc3)c3ccc(Cl)cc23)C1` [Compound 15, 2-(6-chloro-1,2,3,4-tetrahydro-2-methylpyrido[3,4-b]indol-9-yl)-N-(4-fluorophenyl)acetamide] were, in that order, 15%, 15% and 5%.
Consider `C/C(=C\n1c2c(c3cc(Cl)ccc31)CCN(C)C2C)c1ccccc1F` (stereo not drawn) [Compound 168], for which the inhibition at 1 µM in assay [1] worked out at 74%; in assay [2], 96%; in assay [3], 38%.
Take `Cc1ccc(CCn2c3c(c4cc(Cl)ccc42)CCN(C)C3C)cn1` (stereo not drawn) [Compound 80]: the inhibition at 1 µM in assay [1] stood at 82%; in assay [2] it was 79%; in assay [3], 89%.
Turning to `C/C(=C\n1c2c(c3cc(Cl)ccc31)CCN(C)C2C)c1ccc(Cl)cc1` (stereo not drawn) [Compound 99, 6-chloro-9-(2-(4-chlorophenyl)prop-1-enyl)-1,2-dimethyl-2,3,4,9-tetrahydro-1H-pyrido[3,4-b]indole], the inhibition at 1 µM in assay [1] was determined as 59%; in assay [2] it was 97%; in assay [3], 20%.
On the same counts, the results for `CC1c2c(c3cc(Cl)ccc3n2CCc2ccc(F)cc2)CCN1C` (stereo not drawn) [Compound 81] are 92%, 88% and 64%.
On the same counts, the results for `CN1CCc2c(n(CCCC(=O)N3CCCCC3)c3ccc(Cl)cc23)C1` [Compound 44, 4-(6-chloro-1,2,3,4-tetrahydro-2-methylpyrido[3,4-b]indol-9-yl)-1-(piperidin-1-yl)butan-1-one] are 77%, 54% and 61%.
On the same counts, the results for `Cc1ccc2c(c1)c1c(n2CCc2ccc(C)nc2)CN(C)CC1` [Compound 1, 2,3,4,9-tetrahydro-2,6-dimethyl-9-(2-(6-methylpyridin-3-yl)ethyl)-1H-pyrido[3,4-b]indole] are 74%, 25% and 65%.
As to `C/C(=C\n1c2c(c3cc(C)ccc31)CCN(C)C2)c1ccc(Cl)cc1` [Compound 97, 9-(2-(4-chlorophenyl)prop-1-enyl)-2,6-dimethyl-2,3,4,9-tetrahydro-1H-pyrido[3,4-b]indole], the inhibition at 1 µM in assay [1] worked out at 91%; in assay [2], 99%; in assay [3] it was 66%.
The like results for `CN1CCc2c(n(CC(=O)O)c3ccc(Cl)cc23)C1` [Compound 52, 2-(6-chloro-1,2,3,4-tetrahydro-2-methylpyrido[3,4-b]indol-9-yl)acetic acid] were, in that order, 4%, -4% and -11%.
Take `CC1CCN(C(=O)Cn2c3c(c4cc(Cl)ccc42)CCN(C)C3)CC1` [Compound 38, 2-(6-chloro-1,2,3,4-tetrahydro-2-methylpyrido[3,4-b]indol-9-yl)-1-(4-methylpiperidin-1-vyl)ethanone]: the inhibition at 1 µM in assay [1] came to 15%; in assay [2], 14%; in assay [3], 25%.
In the case of `COC(=O)Cn1c2c(c3cc(Cl)ccc31)CCN(C)C2` [Compound 54, methyl 2-(6-chloro-2-methyl-3,4-dihydro-1H-pyrido[3,4-b]indol-9(2H)-yl)acetate], the inhibition at 1 µM in assay [1] is 4%; in assay [3], 11%. Also, the “Percent Inhibition of ligand binding Serotonin (1 μM ligand concentration) 5-HT2C” value in assay [2] (1 μM ligand concentration) was −1%.
Turning to `COc1ccc(C(O)Cn2c3c(c4cc(C)ccc42)CCN(C)C3)cc1OC` (stereo not drawn) [Compound 66], the inhibition at 1 µM in assay [1] came to 55%; in assay [2], 48%; in assay [3], 74%.
As to `CN1CCc2c(n(CC(=O)N3CCNCC3)c3ccc(Cl)cc23)C1` [Compound 55, 2-(6-chloro-2-methyl-3,4-dihydro-1H-pyrido[3,4-b]indol-9(2H)-yl)-1-(piperazin-1-yl)ethanone], the inhibition at 1 µM in assay [1] turned out to be 10%; in assay [2] it was 13%; in assay [3] it was 10%.
As for `Cc1ccc(C(O)Cn2c3c(c4cc(C)ccc42)CCN(C)C3)cc1` (stereo not drawn) [Compound 72], the inhibition at 1 µM stood at 93% in assay [1], 89% in assay [2] and 86% in assay [3].

These data come from patent publication US9260429B2, “Pyrido[3,4-B]indoles and methods of use” (Medivation Technologies, Inc., priority 2008, dated 2016).
